The source of these data is PubChem BioAssay AID1357 (Sanford-Burnham Center for Chemical Genomics, 2008).

Active and inactive are the calls of the source.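 How the source made its calls: active means no band for the stress protein CHOP on the immunoblot after the stress trigger, its induction blocked; inactive means CHOP band still seen after the stress trigger.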

The test system of this experiment is CSM14.1 cells, thapsigargin-induced CHOP Western blot. The experiment is described as follows: inhibitors of CHOP induction, mechanism study for ER stress cell death inhibitors, thapsigargin stimulus, CSM14.1 cells, Western blot (AID 1357).
Regarding `CC1(C)CC(=O)C2=C(C1)Nc1ccccc1NC2c1ccc(-c2ccccc2)cc1` (stereo unspecified), the result was inactive. In the case of `COc1ccc(C2CC(=O)C3=C(C2)Nc2ccccc2NC3c2cccc(Br)c2)cc1OC` (stereo unspecified), the result was inactive.

Turning to `CSc1ccc(C2Nc3ccccc3NC3=C2C(=O)CC(c2ccccc2)C3)cc1` (stereo unspecified), the result was inactive. In the case of `COc1ccc(C2CC(=O)C3=C(C2)Nc2ccccc2NC3c2cccc(Oc3ccccc3)c2)cc1OC` (stereo unspecified) it was “inactive”. Take `COc1ccc(C2CC(=O)C3=C(C2)Nc2ccccc2NC3c2ccccc2C(F)(F)F)cc1OC` (stereo unspecified): the outcome was inactive. Take `COc1ccc(C2CC(=O)C3=C(C2)Nc2ccccc2NC3c2cccc(C(F)(F)F)c2)cc1OC` (stereo unspecified): the result was inactive. Take `O=C1CC(c2ccccc2)CC2=C1C(c1c(F)cccc1Cl)Nc1ccccc1N2` (stereo unspecified): the result was inactive. The entry for `CCCOc1ccc(C2Nc3ccccc3NC3=C2C(=O)CC(c2ccc(OC)c(OC)c2)C3)cc1` (stereo unspecified) is “inactive”. Consider `COc1ccc(C2CC(=O)C3=C(C2)Nc2ccccc2NC3c2cc(C)ccc2C)cc1` (stereo unspecified), for which the result was inactive. With `CCOc1cccc(C2Nc3ccccc3NC3=C2C(=O)CC(c2ccc(OC)cc2)C3)c1` (stereo unspecified), the outcome was inactive. In the case of `CCOc1cc(C2Nc3ccccc3NC3=C2C(=O)CC(c2ccc(OC)cc2)C3)cc(Cl)c1O` (stereo unspecified), the result was inactive.
